Measured values as given in PubChem BioAssay AID256 (DTP/NCI, 2004).
Toxic doses and inconclusive results are not listed. Rule for the calls: active = survival T/C of 150% or more; inactive = T/C below 125% in these data.

Tested on: CD2F1 mice, L1210 leukemia ip, survival T/C
Test: NCI In Vivo Anticancer Drug Screen. Data for tumor model L1210 Leukemia (intraperitoneal) in CD2F1 (CDF1) mice
Conditions: endpoint: mean survival time, higher = longer survival
How it was run: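 Each value reflects a quotient of treated over vehicle control outcomes in mice with a transplanted tumor.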

[1] = dose: 100.0 mg/kg/injection, schedule: Q01DX001 (ip), vehicle: saline
[2] = dose: 200.0 mg/kg/injection, schedule: Q01DX001 (ip), vehicle: saline

Measured: T/C

COC(=O)C(N)CCCCNc1ccc2c(cc1=O)C(NC(C)=O)CCc1cc(OC)c(OC)c(OC)c1-2 (centres undefined)
inactive: dose: 3.1 mg/kg/injection, schedule: Q03HX008 (ip), vehicle: saline 105 % of control | dose: 3.1 mg/kg/injection, schedule: Q03HX016 (ip), vehicle: saline 91 % of control | dose: 3.1 mg/kg/injection, schedule: Q03HX024 (ip), vehicle: saline 96 % of control | dose: 6.3 mg/kg/injection, schedule: Q03HX008 (ip), vehicle: saline 92 % of control | dose: 6.3 mg/kg/injection, schedule: Q03HX016 (ip), vehicle: saline 103 % of control | dose: 6.3 mg/kg/injection, schedule: Q03HX024 (ip), vehicle: saline 102 % of control | dose: 12.5 mg/kg/injection, schedule: Q01DX009 (ip), vehicle: saline 91 % of control | dose: 12.5 mg/kg/injection, schedule: Q01DX009 (sc), vehicle: saline 88 % of control | dose: 12.5 mg/kg/injection, schedule: Q03HX008 (ip), vehicle: saline 97 % of control | dose: 12.5 mg/kg/injection, schedule: Q03HX016 (ip), vehicle: saline 97 % of control | dose: 12.5 mg/kg/injection, schedule: Q03HX024 (ip), vehicle: saline 107 % of control | dose: 25.0 mg/kg/injection, schedule: Q01DX001 (ip), vehicle: saline 102 % of control | dose: 25.0 mg/kg/injection, schedule: Q01DX001 (oral), vehicle: saline 100 % of control | dose: 25.0 mg/kg/injection, schedule: Q01DX001 (sc), vehicle: saline 88 % of control | dose: 25.0 mg/kg/injection, schedule: Q01DX009 (ip), vehicle: saline 100 % of control | dose: 25.0 mg/kg/injection, schedule: Q01DX009 (oral), vehicle: saline 96 % of control | dose: 25.0 mg/kg/injection, schedule: Q01DX009 (sc), vehicle: saline 91 % of control | dose: 25.0 mg/kg/injection, schedule: Q03HX008 (ip), vehicle: saline 105 % of control | dose: 25.0 mg/kg/injection, schedule: Q03HX016 (ip), vehicle: saline 94 % of control | dose: 25.0 mg/kg/injection, schedule: Q03HX024 (ip), vehicle: saline 108 % of control | dose: 25.0 mg/kg/injection, schedule: Q04DX003 (ip), vehicle: saline 100 % of control | dose: 25.0 mg/kg/injection, schedule: Q08DX002 (ip), vehicle: saline 91 % of control | dose: 50.0 mg/kg/injection, schedule: Q01DX001 (ip), vehicle: saline 94 % of control | dose: 50.0 mg/kg/injection, schedule: Q01DX001 (oral), vehicle: saline 94 % of control | dose: 50.0 mg/kg/injection, schedule: Q01DX001 (sc), vehicle: saline 92 % of control | dose: 50.0 mg/kg/injection, schedule: Q01DX009 (ip), vehicle: saline 103 % of control | dose: 50.0 mg/kg/injection, schedule: Q01DX009 (oral), vehicle: saline 91 % of control | dose: 50.0 mg/kg/injection, schedule: Q01DX009 (sc), vehicle: saline 91 % of control | dose: 50.0 mg/kg/injection, schedule: Q03HX008 (ip), vehicle: saline 107 % of control | dose: 50.0 mg/kg/injection, schedule: Q03HX016 (ip), vehicle: saline 97 % of control | dose: 50.0 mg/kg/injection, schedule: Q03HX024 (ip), vehicle: saline 111 % of control | dose: 50.0 mg/kg/injection, schedule: Q04DX003 (ip), vehicle: saline 92 % of control | dose: 50.0 mg/kg/injection, schedule: Q08DX002 (ip), vehicle: saline 103 % of control | dose: 53.0 mg/kg/injection, schedule: Q01DX005 (ip), vehicle: saline 108 % of control | dose: 53.0 mg/kg/injection, schedule: Q01DX009 (ip), vehicle: saline 107 % of control | dose: 53.0 mg/kg/injection, schedule: Q04DX003 (ip), vehicle: saline 87 % of control | dose: 80.0 mg/kg/injection, schedule: Q01DX005 (ip), vehicle: saline 114 % of control | dose: 80.0 mg/kg/injection, schedule: Q01DX009 (ip), vehicle: saline 110 % of control | dose: 80.0 mg/kg/injection, schedule: Q04DX003 (ip), vehicle: saline 87 % of control | dose: 100.0 mg/kg/injection, schedule: Q01DX001 (ip), vehicle: saline with Tween-80 106 % of control | [1] 88 % of control | dose: 100.0 mg/kg/injection, schedule: Q01DX001 (oral), vehicle: saline 96 % of control | dose: 100.0 mg/kg/injection, schedule: Q01DX001 (sc), vehicle: saline 92 % of control | dose: 100.0 mg/kg/injection, schedule: Q01DX009 (ip), vehicle: saline 114 % of control | dose: 100.0 mg/kg/injection, schedule: Q01DX009 (oral), vehicle: saline 91 % of control | dose: 100.0 mg/kg/injection, schedule: Q01DX009 (sc), vehicle: saline 92 % of control | dose: 100.0 mg/kg/injection, schedule: Q04DX002 (ip), vehicle: saline 108 % of control | dose: 100.0 mg/kg/injection, schedule: Q04DX003 (ip), vehicle: saline 91 % of control | dose: 100.0 mg/kg/injection, schedule: Q08DX002 (ip), vehicle: saline 100 % of control | dose: 120.0 mg/kg/injection, schedule: Q01DX005 (ip), vehicle: saline 118 % of control | dose: 120.0 mg/kg/injection, schedule: Q01DX009 (ip), vehicle: saline 114 % of control | dose: 120.0 mg/kg/injection, schedule: Q04DX003 (ip), vehicle: saline 98 % of control | dose: 180.0 mg/kg/injection, schedule: Q01DX005 (ip), vehicle: saline 118 % of control | dose: 180.0 mg/kg/injection, schedule: Q01DX009 (ip), vehicle: saline 105 % of control | dose: 180.0 mg/kg/injection, schedule: Q04DX003 (ip), vehicle: saline 96 % of control | dose: 200.0 mg/kg/injection, schedule: Q01DX001 (ip), vehicle: saline with Tween-80 106 % of control | [2] 97 % of control | dose: 200.0 mg/kg/injection, schedule: Q01DX001 (oral), vehicle: saline 94 % of control | dose: 200.0 mg/kg/injection, schedule: Q01DX001 (sc), vehicle: saline 97 % of control | dose: 200.0 mg/kg/injection, schedule: Q01DX009 (ip), vehicle: saline 118 % of control | dose: 200.0 mg/kg/injection, schedule: Q01DX009 (oral), vehicle: saline 96 % of control | dose: 200.0 mg/kg/injection, schedule: Q01DX009 (sc), vehicle: saline 94 % of control | dose: 200.0 mg/kg/injection, schedule: Q04DX002 (ip), vehicle: saline 104 % of control | dose: 200.0 mg/kg/injection, schedule: Q04DX003 (ip), vehicle: saline 103 % of control | dose: 200.0 mg/kg/injection, schedule: Q08DX002 (ip), vehicle: saline 111 % of control | dose: 270.0 mg/kg/injection, schedule: Q01DX005 (ip), vehicle: saline 90 % of control | dose: 270.0 mg/kg/injection, schedule: Q04DX003 (ip), vehicle: saline 98 % of control | dose: 400.0 mg/kg/injection, schedule: Q01DX001 (ip), vehicle: saline with Tween-80 107 % of control | dose: 400.0 mg/kg/injection, schedule: Q01DX001 (ip), vehicle: saline 108 % of control | dose: 400.0 mg/kg/injection, schedule: Q01DX001 (oral), vehicle: saline 96 % of control | dose: 400.0 mg/kg/injection, schedule: Q01DX001 (sc), vehicle: saline 100 % of control | dose: 400.0 mg/kg/injection, schedule: Q04DX003 (ip), vehicle: saline 113 % of control | dose: 400.0 mg/kg/injection, schedule: Q08DX002 (ip), vehicle: saline 113 % of control | dose: 800.0 mg/kg/injection, schedule: Q01DX001 (oral), vehicle: saline 94 % of control

O=C1CC(=O)C(Br)=C1Br
inactive: dose: 0.75 mg/kg/injection, schedule: Q01DX009 (ip), vehicle: saline with Tween-80 95 % of control | dose: 1.5 mg/kg/injection, schedule: Q01DX009 (ip), vehicle: saline with Tween-80 95 % of control | dose: 3.0 mg/kg/injection, schedule: Q01DX009 (ip), vehicle: saline with Tween-80 90 % of control

C=C(C)CC1(CC)C(=O)NC(=S)NC1=O
inactive: dose: 50.0 mg/kg/injection, schedule: Q01DX009 (ip), vehicle: saline with Tween-80 102 % of control | dose: 100.0 mg/kg/injection, schedule: Q01DX009 (ip), vehicle: saline with Tween-80 101 % of control

Cc1ccc(/C(=N\Nc2ccc([N+](=O)[O-])cc2[N+](=O)[O-])C2CC2c2ccccc2)cc1 (centres undefined)
inactive: dose: 50.0 mg/kg/injection, schedule: Q04DX002 (ip), vehicle: saline with Tween-80 91 % of control | dose: 100.0 mg/kg/injection, schedule: Q04DX002 (ip), vehicle: saline with Tween-80 105 % of control | dose: 200.0 mg/kg/injection, schedule: Q04DX002 (ip), vehicle: saline with Tween-80 91 % of control

CCOC(CNCc1cccc(OC)c1)OCC
inactive: [1] 100 % of control | [2] 100 % of control
